Laboratory results reported in paper PMC9056986 (RSC Advances, 2020).

target: HCV-NS3/4A protease (Hepacivirus hominis (Hepatitis C virus), UniProt O92972); experiment: HCV-NS3/4A protease inhibition, in vitro FRET assay; type: biochemical; details: IC50, purified HCV-NS3/4A protease
Sequence (O92972 1027-1207, other chains not shown): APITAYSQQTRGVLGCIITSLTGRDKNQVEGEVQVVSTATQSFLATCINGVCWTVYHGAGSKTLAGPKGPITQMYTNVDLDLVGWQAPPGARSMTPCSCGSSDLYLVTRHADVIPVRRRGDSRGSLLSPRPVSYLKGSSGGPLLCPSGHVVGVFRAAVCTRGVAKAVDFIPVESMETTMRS

Structure (SMILES)	IC50 [µM]
CCn1c(NN)nc2ccc(C)cc2c1=O [Compound 15, 3-Ethyl-2-hydrazinyl-6-methyl-3H-quinazolin-4-one]	178 ± 3.9
CCn1c(NN)nc2cc3ccccc3cc2c1=O [Compound 8, 3-Ethyl-2-hydrazinyl-benzo[g]quinazolin-4(3H)-one]	78.8 ± 1.7
Cc1ccc2nc(NN)n(C)c(=O)c2c1 [Compound 14, 3-Methyl-2-hydrazinyl-6-methyl-3H-quinazolin-4-one]	25.5 ± 0.55
Cn1c(NN)nc2cc3ccccc3cc2c1=O [Compound 7, 3-Methyl-2-hydrazinylbenzo[g]quinazolin-4(3H)-one]	22.3 ± 0.46
